Test results as given in publication PMC5259791 (Scientific Reports, 2017).
Positions count from the first letter of the chain named.

Assays:
PPARδ = biological target: T1, PPARδ (Homo sapiens, UniProt Q03181); test: SPR on immobilized PPARδ; format: binding
T1 construct: purchased Tebu-Bio
T1 sequence (Q03181 1-441): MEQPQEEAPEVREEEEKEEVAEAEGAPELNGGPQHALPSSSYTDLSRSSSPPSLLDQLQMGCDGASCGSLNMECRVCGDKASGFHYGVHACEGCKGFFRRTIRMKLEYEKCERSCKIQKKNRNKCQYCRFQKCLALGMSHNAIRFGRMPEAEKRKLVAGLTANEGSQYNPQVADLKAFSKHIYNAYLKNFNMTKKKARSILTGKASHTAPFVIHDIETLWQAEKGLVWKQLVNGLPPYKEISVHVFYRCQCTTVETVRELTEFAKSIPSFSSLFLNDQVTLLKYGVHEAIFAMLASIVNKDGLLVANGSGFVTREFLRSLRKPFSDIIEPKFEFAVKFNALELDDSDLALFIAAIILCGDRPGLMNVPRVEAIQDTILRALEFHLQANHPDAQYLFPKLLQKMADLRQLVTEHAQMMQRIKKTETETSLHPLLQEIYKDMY
Description: In order to evaluate if 1 acts as a selective ligand of PPARγ, SPR analyses were also carried out on immobilized PPARα and PPARδ, two proteins structurally and functionally related to PPARγ[23][24].
(§1) SPR analyses were carried out on a BIACORE 3000 instrument (GE-Healthcare). PPARα, PPARγ, PPARδ and HSP60 surfaces were prepared on research−grade CM5 sensor chips (GE Healthcare). Proteins (100 μg/ml in 10 mM CH3COONa, pH 5.0) were immobilized using a standard amine−coupling protocol, to obtain densities of 3–5 kRU. Testing compounds were dissolved in 100% DMSO to obtain 4 mM solutions, and then diluted in PBS containing variable amounts of DMSO, achieving a final DMSO concentration of 0.1%. For each molecule a five−point concentration series (25 nM, 65 nM, 150 nM, 400 nM, 1 μM) was set up. SPR experiments and data elaboration were carried out as reported elsewhere.

Hsp60 [1] = biological target: T2, Hsp60 (Homo sapiens, UniProt P10809); test: SPR on immobilized Hsp60; format: binding
T2 construct: purchased Tebu-Bio
Description: Conversely, no affinity of the diterpene towards Hsp60 was observed (Fig. 2c).
as §1

PPARγ1 = biological target: T3, PPARγ1 (Homo sapiens, UniProt P37231); test: PPRE-luciferase transactivation in HEK293 cells stably expressing exogenous PPARγ; format: cell-based
T3 construct: from a transfected PCDNA-3 vector carrying a complete PPARγ cDNA; expressed in transfected cells
T3 sequence (P37231 1-477 isoform P37231-2): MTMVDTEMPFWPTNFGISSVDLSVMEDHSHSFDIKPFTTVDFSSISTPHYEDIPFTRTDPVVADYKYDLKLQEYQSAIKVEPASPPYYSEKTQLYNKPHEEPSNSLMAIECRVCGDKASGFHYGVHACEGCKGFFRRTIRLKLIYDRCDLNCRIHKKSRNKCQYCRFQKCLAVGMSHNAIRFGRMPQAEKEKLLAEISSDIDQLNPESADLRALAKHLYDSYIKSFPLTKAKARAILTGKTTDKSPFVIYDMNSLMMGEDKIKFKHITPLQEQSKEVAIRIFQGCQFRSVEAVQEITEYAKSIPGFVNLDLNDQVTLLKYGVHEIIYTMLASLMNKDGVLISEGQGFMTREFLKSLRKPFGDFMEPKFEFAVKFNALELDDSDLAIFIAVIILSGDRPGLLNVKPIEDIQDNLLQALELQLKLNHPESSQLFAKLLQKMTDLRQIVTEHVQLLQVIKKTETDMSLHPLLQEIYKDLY
Source text: These cells were selected as they express a fixed and known amount of PPARγ, so that the differences in luciferase activity can be ascribed to the different ligand used. […] (b) Human HEK293T cells were co-transfected with the PPRE-luciferase reporter gene and the wild-type PPARγ1 or its mutant version (C285A).
(§2) HEK293 cells that stably express an exogenous Flag-tagged PPARγ from a transfected PCDNA-3 vector carrying a complete PPARγ cDNA were used for transfection experiments. The PPRE-Luc plasmid contains a luciferase reporter gene under the transcriptional control of three copies of the PPRE (Peroxisome Proliferator Response Element) derived from Acyl-CoA oxidase gene fused upstream to the herpes simplex thymidine kinase (TK) promoter, as described. […] Transient transfection assays were carried out as described in ref. [44]. […] In this case, the experiments were carried out into basal HEK293T cells and the RSV-β-Gal plasmid was used as control for transfection efficiency. […] The wild type and mutant PPARγ containing expression vectors were kindly provided by Dott. Takuma Shiraki. At least three independent experiments were performed for each transfection carried out in duplicate. Luciferase activity was normalized to β-galactosidase activity and reported as fold-induction.

Hsp60 [2] = biological target: T2, Hsp60; test: MS-based peptide mapping of Hsp60 incubated with 1; details: trypsin digestion, LC-MS/MS
Description: PPARγ-LBD and Hsp60 were incubated with a 2:1 molar excess of 1 under stirring for 15 min in PBS at 37 °C. Eluted proteins were loaded on a mono-dimensional 12% SDS-PAGE, stained with Brilliant Blue G-Colloidal, reduced, and digested by trypsin. The resulting fragments were extracted and analyzed by LC-MS/MS using the same instrument and protocol described before. Peptide identification was performed by MS and MS/MS data using Mascot (Matrix Science) to interrogate the Swiss Prot non-redundant protein database.

PPARγ1 C285A mutant = biological target: T4, PPARγ1 C285A mutant (Homo sapiens, UniProt P37231, C313A); test: PPRE-luciferase transactivation in HEK293T cells co-transfected with PPARγ1 C285A mutant; format: cell-based; details: C285A mutant versus wild type receptor, 24 h
T4 construct: expressed in transfected cells; host or cells: HEK293T (transient); vectors from Takuma Shiraki
T4 sequence (P37231 1-477 isoform P37231-2 C285A): T3 sequence (P37231 1-477 isoform P37231-2) with C285A
Source text: (b) Human HEK293T cells were co-transfected with the PPRE-luciferase reporter gene and the wild-type PPARγ1 or its mutant version (C285A).
as §2

T2 sequence (P10809 27-573): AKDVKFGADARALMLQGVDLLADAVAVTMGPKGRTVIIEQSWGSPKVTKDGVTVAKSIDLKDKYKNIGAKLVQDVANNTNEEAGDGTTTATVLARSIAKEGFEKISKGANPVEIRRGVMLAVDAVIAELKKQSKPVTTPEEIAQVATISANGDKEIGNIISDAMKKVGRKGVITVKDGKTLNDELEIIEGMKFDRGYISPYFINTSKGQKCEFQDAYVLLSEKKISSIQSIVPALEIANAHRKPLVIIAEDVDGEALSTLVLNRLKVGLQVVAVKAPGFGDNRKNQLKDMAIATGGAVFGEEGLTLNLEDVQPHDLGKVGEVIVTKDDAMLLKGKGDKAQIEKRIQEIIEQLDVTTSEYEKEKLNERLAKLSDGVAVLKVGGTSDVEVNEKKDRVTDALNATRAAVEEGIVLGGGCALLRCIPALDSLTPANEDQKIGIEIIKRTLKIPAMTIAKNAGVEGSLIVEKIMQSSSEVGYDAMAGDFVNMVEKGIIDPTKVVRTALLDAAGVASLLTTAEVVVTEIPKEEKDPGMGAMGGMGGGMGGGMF

C=C1C(=O)C23CCC4C(C(=O)OC)CC(O)CC4(C)C2CCC1C3 (centres unmarked) [Compound 1, 15-ketoatractyligenin methyl ester]
binding to PPARδ (PPARδ): no significant binding
affinity towards Hsp60 (Hsp60 [1]): no affinity
effect of detergent on transactivation activity profile (PPARγ1; 0.001% Tween 20 in the medium): not find any variation in the bell-shaped activity profile
concentration at peak of luciferase activity (PPARγ1; 24 h treatment, HEK293 stably expressing PPARγ): 1 µM
transactivation activity lower than Rosiglitazone (PPARγ1; 24 h treatment, relative to Rosiglitazone): about 40%
type of PPARγ agonism (PPARγ1; transactivation assay): partial agonist
covalent modification of Hsp60 (Hsp60 [2]): no peptide covalently modified
luciferase activity with C285A mutant (PPARγ1 C285A mutant): even lower luciferase activity
